US5602229A, “Pentapeptide antibiotics” (Gruppo Lepetit S.p.A., priority 1989, dated 1997)
Read-outs that look alike come from different tables or passages of the source.

Assays:
Strept. pyogenes C 203 = assay: In vitro MIC, two-fold dilution test in microtiter; type: cell-based, Streptococcus pyogenes; conditions: Difco Todd-Hewitt broth, inoculum about 10^4 CFU/ml, 18-24 h at 37° C.
Description: (§1) Broth cultures are diluted enough so that the final inoculum is about 10^4 colony forming units/ml (CFU/ml).

[1] = test system: Streptococcus pneumoniae UC41; assay: In vitro MIC, two-fold dilution test in microtiter; type: cell-based; conditions: Difco Todd-Hewitt broth, inoculum about 10^4 CFU/ml, 18-24 h at 37° C.
Description: as §1

[2] = test system: Staphylococcus aureus Tour; assay: In vitro MIC, two-fold dilution test in microtiter; type: cell-based; conditions: Oxoid ISO-SENSITEST broth, inoculum about 10^4 CFU/ml, 18-24 h at 37° C.
Description: as §1

[3] = Acid-base titration (pKa); type: physicochemical
Description: Acid-base titrations were carried out under the following conditions: the sample was dissolved in a mixture methyl cellosolve/H2 O 4/1, then an excess of 0.01M HCl in the same solvent mixture was added and the resulting solution was titrated with 0.01N NaOH.

[4] = test system: Staphylococcus epidermidis ATCC 12228; assay: In vitro MIC, two-fold dilution test in microtiter; type: cell-based; conditions: Oxoid ISO-SENSITEST broth, inoculum about 10^4 CFU/ml, 18-24 h at 37° C.
Description: as §1

[5] = test system: Streptococcus faecalis ATCC 7080; assay: In vitro MIC, two-fold dilution test in microtiter; type: cell-based; conditions: Oxoid ISO-SENSITEST broth, inoculum about 10^4 CFU/ml, 18-24 h at 37° C.
Description: as §1

Streptococcus mitis 796 = assay: In vitro MIC, two-fold dilution test in microtiter; type: cell-based; conditions: inoculum about 10^4 CFU/ml, 18-24 h at 37° C.
Description: as §1

[6] = methyl cellosolve/H2O 4/1, excess 0.01M HCl, titrated with 0.01N NaOH

Substance | MIC, STREPT. PYOGENES C 203 (Strept. pyogenes C 203) [micrograms/ml] | MIC, STREPT. PNEUMONIAE UC 41 [1] [micrograms/ml] | MIC, STAPH. AUREUS TOUR [2] [micrograms/ml] | pKa1 [3] | pKa2 [3] | pKa3 [3] | pKa1 [3, 6] | pKa2 [3, 6] | pKa3 [3, 6] | MIC, STAPH. EPIDERMIDIS ATCC 12228 [4] [micrograms/ml] | MIC, STREPT. FAECALIS ATCC 7080 [5] [micrograms/ml] | MIC, STREPT. MITIS 796 (Streptococcus mitis 796) [micrograms/ml]
reductive cleavage product of antibiotic A/40926 [Example 9] | 2 | 16 | 16 | 4.5 | 5.9 | 7.5 |  |  |  |  |  | 
reductive cleavage product of antibiotic L 17046 [Example 4] |  |  |  |  |  |  | 4.6 | 5.8 | 7.5 |  |  | 
reductive cleavage product of antibiotic L 17054 [Example 3] |  |  |  |  |  |  | 4.7 |  |  |  |  | 
reductive cleavage product of antibiotic L 17392 [Example 5] | 8 | 16 | 4 | 4.5 | 5.5 |  |  |  |  | 2 | 16 | 16
reductive cleavage product of ristocetin [Example 8] |  |  |  |  |  |  |  | 6.2 | 7.8 |  |  | 
reductive cleavage product of teicoplanin A2 component 2 [Example 2] | 1 | 4 | 8 | 4.1 | 5.9 | 7.3 |  |  |  | 2 | 4 | 4
reductive cleavage product of vancomycin [Example 6] | 8 |  | 16 |  |  |  |  |  |  | 32 | 16 | 
